Active and inactive are the calls of the source. The calls are words filed in the database; no cut-off is given here.
How the values were obtained:
[1] = tested on: Artemia; test: Toxicity against brine shrimp; type: organism-based; conditions: in vivo
[2] = tested on: Staphylococcus aureus; test: Antibacterial activity against Staphylococcus aureus at 100 ug/disk; type: functional
[3] = tested on: Bacillus subtilis; test: Antibacterial activity against Bacillus subtilis at 100 ug/disk; type: functional
[4] = tested on: Klebsiella pneumoniae; test: Antibacterial activity against Klebsiella pneumoniae at 100 ug/disk; type: functional
[5] = tested on: Escherichia coli; test: Antibacterial activity against sEscherichia coli at 100 ug/disk; type: functional

Row | SMILES | Activity [1] | Activity [2] | Activity [3] | Activity [4] | Activity [5] | zone of inhibition at 100 µg/disc ([2]; read-out: IZ) [mm] | zone of inhibition at 100 µg/disc ([3]; read-out: IZ) [mm] | zone of inhibition at 100 µg/disc ([4]; read-out: IZ) [mm] | zone of inhibition at 100 µg/disc ([5]; read-out: IZ) [mm]
1 | COc1cc(O)c2c(c1)C(COC(C)=O)N(C=O)C=C2 (stereo not given) | Non-toxic | inactive | inactive | inactive | inactive | – | – | – | –
2 | CC(=O)OCc1nccc2c1C(=O)C(O)=C(C)C2=O | Non-toxic | – | – | – | – | 14 | 16 | 12 | 12

From ChEMBL document CHEMBL1141854, “A new 1,2-dihydroisoquinoline from the sponge petrosia similis” (J Nat Prod, 1999)
